Measured values taken from patent publication US20260232753A1, “COMPOSITION FOR TREATING MACULAR DEGENERATION COMPRISING NOVEL PEPTIDE” (EYEBIOKOREA, INC., priority 2021, published 2026).
In brackets after ≈: the same amount, converted by molar mass. Where a SMILES comes first, the peptide text is derived from it. Where no end group is shown, it is not given here. [ ]: non-standard residue; d: D form. Hyp = O=C(O)[C@@H]1C[C@@H](O)CN1; Tle = CC(C)(C)[C@H](N)C(=O)O; Aib = CC(C)(N)C(=O)O

Experiments:
[1] = Solubility of the peptide in water (Korean Pharmacopoeia method); assay type: physicochemical; settings: 20±5° C.; for solubility: within 30 minutes
Protocol: In order to evaluate the solubility of the peptide of the present invention, an experiment was performed as follows.
The solubility test was conducted based on the Korean Pharmacopoeia method, and the solubility was determined as the degree to which 0.1 g of peptide was dissolved within 30 minutes when added to 10 mL of water and shaken vigorously for 30 seconds every 5 minutes at 20±5° C.

[2] = Stability of the peptide: content analysis by HPLC in aqueous solution under harsh conditions; assay type: physicochemical
Protocol: In order to evaluate the stability of the peptide of the present invention, an experiment was performed as follows.
The stability of the peptide was confirmed through content analysis in an aqueous solution at 40° C., 75% humidity, and harsh conditions, and was analyzed using HPLC under the following conditions. • Analysis column: C18 (4.6 Y 250 mm, 5 μm, YMC Hydrosphere) • Analysis wavelength: ultraviolet absorption spectrophotometer (210 nm) • Injection volume/Flow rate: 10 μL/0.8 mL/min • Column temperature: 45° C. • Mobile phase: 0.1 M phosphate buffer methanol mixture (83:17)

[3] = test system: choroidal neovascularization (CNV); assay: Inhibition of choroidal neovascularization: electroretinography, b-wave amplitude as indicator of retinal function; assay type: in vivo, C57BL/6 mice; settings: laser-induced CNV; 1 μL intravitreal, peptide 10 mg/mL or aflibercept 20 mg/mL; single white light 0.9 cd·sec/m^2
Description: (§1) The CNV animal model used in the present invention is a mouse model in which lesions are induced by irradiating a laser to the choroid of C57BL/6 mice using a laser slit system. The laser-induced CNV model, first described in 1979, uses photocoagulation to disturb Bruch's membrane to induce the growth of choroidal neovascularization into the retina area, and it is similar in development to neovascular disease in the human retina, that is, wet macular degeneration (wet AMD), in that neovascularity arises from the choroid. In addition, the laser-induced CNV model was successful in predicting the clinical efficacy of anti-vascular endothelial growth factor (VEGF) treatment for neovascular AMD, and is an animal model used in the development stage of existing therapeutic agents (Gong Y, Li J, Sun Y, Fu Z, Liu C H, Evans L, et al. (2015) Optimization of an Image-Guided Laser-Induced Choroidal Neovascularization Model in Mice. PLOS ONE 10 (7)).
(§2) In order to evaluate the efficacy of the peptide of the present invention to inhibit the choroidal neovascularization (CNV), an experiment was performed as follows.
The eyes of 7-8 week old C57BL/6 mice were instilled with a mydriatic agent to dilate the pupils, and the mice were anesthetized by intraperitoneal injection of ketamine (50 mg/kg) and rompun (23.32 mg/kg). A slit-lamp laser injection system was used to irradiate the laser to the choroid of each eye of the mouse four times in the 12 o'clock, 3 o'clock, 6 o'clock, and 9 o'clock directions. At this time, the laser irradiation conditions were 532 nm, 80 msec, and 240 mW. Immediately after laser irradiation, 1 μL of each peptide at a concentration of 10 mg/mL or aflibercept at a concentration of 20 mg/mL, which was dissolved in PBS, was injected into the vitreous body using a syringe. For electroretinogram analysis, dark adaptation was performed for more than 12 hours. The mice were subjected to mydriasis in a dark room and anesthetized, and then electroretinography was performed by contacting the ground electrode to the tail, the reference electrode to the head, and the corneal electrode to the cornea. The response values were obtained by stimulating the retina with a single white light of 0.9 cd·sec/m^2 flash intensity, and the amplitude, which is determined from the trough of the a-wave to the peak of the b-wave, was measured and evaluated as an indicator of retinal function. The results of all tests are expressed as mean #standard deviation, and significance was verified using one-way ANOVA and Kruskal-wallis test.

[4] = test system: choroidal neovascularization (CNV); assay: Inhibition of choroidal neovascularization: optical coherence tomography, size of CNV lesion, intravitreal injection; assay type: in vivo, C57BL/6 mice; settings: laser-induced CNV; 1 μL intravitreal, peptide 10 mg/mL or aflibercept 20 mg/mL; ten days after administration; OCT
Description: as §1, §2
The eyes of 7-8 week old C57BL/6 mice were instilled with a mydriatic agent to dilate the pupils, and the mice were anesthetized by intraperitoneal injection of ketamine (50 mg/kg) and rompun (23.32 mg/kg). A slit-lamp laser injection system was used to irradiate the laser to the choroid of each eye of the mouse four times in the 12 o'clock, 3 o'clock, 6 o'clock, and 9 o'clock directions. At this time, the laser irradiation conditions were 532 nm, 80 msec, and 240 mW. Immediately after laser irradiation, 1 μL of each peptide at a concentration of 10 mg/mL or aflibercept at a concentration of 20 mg/mL, which was dissolved in PBS, was injected into the vitreous body using a syringe. Ten days after drug administration, the mice were anesthetized, and the CNV lesions induced by laser were calculated and expressed as μm^2 using the ImageJ program by transmitting an OCT beam for each burn. The results of all tests are expressed as mean±standard deviation, and significance was verified using one-way ANOVA and Kruskal-wallis test.

[5] = test system: choroidal neovascularization (CNV); assay: Inhibition of choroidal neovascularization: fluorescence value (CTF) at the CNV site by FFA, laser-induced CNV model, intravitreal injection; assay type: in vivo, C57BL/6 mice; settings: laser-induced CNV; 1 μL intravitreal, peptide 10 mg/mL or aflibercept 20 mg/mL; ten days after administration; lower CTF = less CNV
Description: as §1, §2
The eyes of 7-8 week old C57BL/6 mice were instilled with a mydriatic agent to dilate the pupils, and the mice were anesthetized by intraperitoneal injection of ketamine (50 mg/kg) and rompun (23.32 mg/kg). A slit-lamp laser injection system was used to irradiate the laser to the choroid of each eye of the mouse four times in the 12 o'clock, 3 o'clock, 6 o'clock, and 9 o'clock directions. At this time, the laser irradiation conditions were 532 nm, 80 msec, and 240 mW. Immediately after laser irradiation, 1 μL of each peptide at a concentration of 10 mg/mL or aflibercept at a concentration of 20 mg/mL, which was dissolved in PBS, was injected into the vitreous body using a syringe. Ten days after drug administration, the mice were anesthetized, and 2% fluorescein was administered to the abdominal cavity to stain blood vessels. The retina was photographed 2 to 3 minutes after fluorescein administration. The size and fluorescence value of CNV lesions induced by laser were measured using the ImageJ program, and in order to reduce the differences between subjects, the CTF (corrected total fluorescence) was calculated by removing the background, and the values of each group were compared. The results of all tests are expressed as mean±standard deviation, and significance was verified using one-way ANOVA and Kruskal-wallis test.

neovascularity = assay: Eye drop efficacy to inhibit neovascularity in Vldlr knockout mice: lesion area by retinal fluorescence imaging; assay type: in vivo
Description: A symptom of neovascular macular degeneration is retinal angiomatous proliferation (RAP), which occurs in approximately 12 to 15% of patients who are newly diagnosed with neovascular macular degeneration. Meanwhile, Vldlr is known to be one of the functional candidate genes for human macular degeneration, and mice in which Vldlr is knocked out (−/−) show retinal hemangioma proliferation along with subretinal neovascularization. Therefore, in order to evaluate the neovascularity inhibitory efficacy of the eye drop comprising the peptide of Example 43 (002-175), which was confirmed to be an excellent peptide through the above test examples, in Vldlr knockout (−/−) mice, an animal model of neovascular macular degeneration disease, an experiment was performed as follows.
From 6 weeks of age (P42) to 14 weeks of age (P98), Vldlr^−/− mice were instilled with the eye drop comprising the peptide of Example 43 (002-175) twice a day, and as a positive control group, aflibercept at a concentration of 20 mg/mL was intraocularly injected once, 1 μL each, into the vitreous body of 6 week old mice. The eyes of the mice were instilled with a mydriatic agent to dilate the pupils, and then the mice were anesthetized by intraperitoneal injection of ketamine (50 mg/kg) and rompun (23.32 mg/kg), and 2% fluorescein was injected to the abdominal cavity to stain blood vessels. Images were acquired through retinal fluorescence imaging, and the lesion area was calculated using the ImageJ program, and the results of the experiment are shown in FIGS. 10 and 11.

Molecule | solubility [1] [mg/mL] | b-wave amplitude [3] [μV] | Size of lesion [4] | CTF (corrected total fluorescence) value [5] | other results
CC(C)C[C@H](NC(=O)CNC(=O)[C@H](CCC(=O)O)NC(=O)[C@H](CCC(N)=O)NC(=O)CNC(=O)[C@@H]1C[C@@H](O)CN1)C(=O)N[C@@H](C)C(=O)O [Example 40, Hyp-Gly-Gln-Glu-Gly-Leu-Ala] (H-[Hyp]GQEGLA-OH; N-terminus and C-terminus assumed) | ≥ 330 | – | – | – | –
CC(C)C[C@H](NC(=O)C(C)(C)NC(=O)[C@H](CCC(=O)O)NC(=O)[C@H](CCC(N)=O)NC(=O)CNC(=O)[C@@H]1C[C@@H](O)CN1)C(=O)N[C@@H](C)C(=O)O [Example 43, Hyp-Gly-Gln-Glu-Aib-Leu-Ala] (H-[Hyp]GQE[Aib]LA-OH; N-terminus and C-terminus assumed) | ≥ 500 | – | – | – | Solubility (in words) [1]: most excellent solubility; Stability (in words) ([2]; 40° C., 75% humidity, 7 days): most excellent stability
CC(C)C[C@H](NC(=O)[C@@H](NC(=O)[C@H](CCC(=O)O)NC(=O)[C@H](CCC(N)=O)NC(=O)CNC(=O)[C@@H]1C[C@@H](O)CN1)C(C)(C)C)C(=O)N[C@@H](C)C(=O)O [Example 44, Hyp-Gly-Gln-Glu-tert-Leu-Leu-Ala] (H-[Hyp]GQE[Tle]LA-OH; N-terminus and C-terminus assumed) | 100 (≈ 135 mM) | – | – | – | –
Hyp-Gly-Gln-Glu-Leu-Leu-Ala ([Hyp]GQELLA) [Example 41] | – | 510 | 4,960 μm^2 | + (+: 300,000 to 800,000) | Content after 7 days ([2]; 40° C., 75% humidity, 7 days): 97.555%; Decrease rate ([2]; 40° C., 75% humidity, after 7 days): 0.600%; Initial content ([2]; HPLC, initial): 98.155%
Hyp-Gly-Gln-Glu-Val ([Hyp]GQEV) [Example 37] | – | 400 | 5,775 μm^2 | + (+: 300,000 to 800,000) | –
Hyp-Gly-Gln-Glu-Val-Leu-Ala ([Hyp]GQEVLA) [Example 42] | – | 380 | 6,102 μm^2 | + (+: 300,000 to 800,000) | –
aflibercept [reference compound] | – | 398 | 5,437 μm^2 | + (+: 300,000 to 800,000) | Size of the lesion (area of new blood vessels), course during administration (in words) (neovascularity; P42 to P98, for aflibercept from the 2nd week): gradually increased again; Size of the lesion (area of new blood vessels), 1 week after administration (in words) (neovascularity; P49): reduced rapidly; Size of the lesion (area of new blood vessels), after 8 weeks (in words) (neovascularity; P98): reached a size similar to that of the group administered with vehicle
